Columns and labels:
[1] = test system: S. pombe cells; assay: Reversal of rotenone-induced proliferation inhibition; type: cell-based, Schizosaccharomyces pombe
Experimental: Phosphatidylethanolamine (PE) deficiency results in a rotenone-sensitive phenotype that can be suppressed by ethanolamine. Log phase cultures were suspended at 10^7 cells/ml, serially diluted (1:10), and spotted (5 μl per spot) onto YES (Control) or YES containing 16 μM rotenone (+Rotenone).
Oxidative stress has been detected in the brains of deceased Parkinson's disease patients, and in rats exposed to rotenone as a model for Parkinson's disease.

[2] = test system: S. pombe cells; assay: MitoTracker Green FM staining of mitochondrial localization; type: cell-based, Schizosaccharomyces pombe
Experimental: (§1) MitoTracker Green FM and dihydroethidium (DHE) staining of S. pombe cells. Mitochondrial localization was detected by staining S. pombe cells with MitoTracker Green FM (MTGreen) based on the protocol recommended by the manufacturer (Invitrogen). Briefly, S. pombe cells were cultured overnight in YES liquid medium at 30° C. to mid-log phase. Where indicated, rotenone stock solution was added to portions of each culture to a final concentration of 6.4 μg/ml. Equivalent volumes of DMSO were added to control cultures. Stock solutions of MTGreen (5 μM in DMSO) were prepared just prior to use. Staining was carried out by adding 10 μl of MTGreen stock solution to 1 ml of cell culture and incubating at 30° C. with shaking for 20 min. Stained cells were washed once with YES and resuspended in approximately 10 μl of YES prior to preparation of samples for microscopy. Stained cells were concentrated by centrifugation to a volume of approximately 10 μl. DHE staining was carried out as described by Huard et al., (2008) Cell Res. 18: 961-973, incorporated herein by reference in its entirety. Stained cells were visualized by epifluorescence microscopy using a Nikon 90i automated epifluorescence microscope system operated using Nikon NIS-Elements software. Images were captured using a CoolSNAP HQ2 monochrome CCD camera (Photometrics). RAW images were level-adjusted using the Adobe PhotoShop CS3 software application.
Rotenone induces disruption of mitochondrial localization in S. pombe cells. Similar to some mammalian cells, such as fibroblasts and nerve cells (Barsoum et al., (2006) EMBO J. 25: 3900-3911; Amchenkova et al., (1988) J. Cell. Biol. 107: 481-495), mitochondria in S. pombe are organized into tubular structures (Chiron et al., (2007) Methods Mol. Biol. 372: 91-105), as shown in FIG. 5A. […] Wild type S. pombe cells were cultured to mid-log phase in YES liquid medium were treated with rotenone (6.4 μg/ml) for 4 hr, stained with the fluorescent mitochondrial dye MitoTracker Green FM (MTGreen), and visualized by fluorescence microscopy. […]

[3] = test system: S. pombe cells; assay: Dihydroethidium (DHE) staining for ROS; type: cell-based, Schizosaccharomyces pombe; settings: rotenone 6.4 μg/ml; for ROS levels (DHE): wild type
Experimental: as §1
Rotenone induces generation of ROS in S. pombe cells. Since rotenone induces generation of ROS in mammalian cell cultures and oxidative stress damage in the brains of rats chronically treated with the toxin (Li et al., (2003) J. Biol. Chem. 278: 8516-8525; Greenamyre et al., (2003) Parkinsonism Relat. Disord. 9 (Suppl 2): S59-64), it was determined whether rotenone also induces generation of ROS in S. pombe cells. To do this, wild type S. pombe cells were treated with rotenone and periodically analyzed the treated cells by staining with dihydroethidium (DHE), which is oxidized to ethidium in the presence of ROS (Bindokas et al., (1996) J. Neurosci. 16: 1324-1336).
Pmk1, but not Spc1, is required for normal clearance of rotenone-induced ROS in S. pombe cells. To investigate further the effects of rotenone on spc1Δ and pmk1Δ cells, we treated the two strains and wild type S. pombe cells were treated with rotenone for 12 hrs and stained cells from treated and control cultures with DHE for detection of ROS by fluorescence microscopy.

[4] = test system: S. pombe cells; assay: Rotenone sensitivity assay (serial dilution spot growth on agar media); type: cell-based, Schizosaccharomyces pombe; settings: for sensitivity of growth to rotenone: 16 μM rotenone; for sensitivity of growth to rotenone relative to wild type: rotenone 6.4 μg/ml; for inhibition of S. pombe growth: wild type
Experimental: Yeast strains, media, and genetic methods. The following S. pombe strains were used in this study: SP870 (h90 ade6-210 leu1-32 ura4-D18), SPSPC1 U90 (h90 ade6-210 leu1-32 ura4-D18 spc1::ura4), SPM1L (h90 leu1-32 ura4-D18 spm1::LEU2). S. pombe cultures were grown in either YES medium (0.5% yeast extract; 3% dextrose; and adenine, histidine, leucine, lysine and uracil, each at 250 mg/L) or Edinburgh minimal medium (EMM) containing required auxotrophic supplements (Alfa et al., (1993) Experiments with fission yeast: A laboratory course manual, Cold Spring Harbor Laboratory Press, Cold Spring Harbor, N.Y., incorporated herein by reference in its entirety). Agar media contained 2% Bacto agar (Difco).
Rotenone sensitivity assay. Rotenone stock solutions (10 mM in DMSO) were prepared just prior to carrying out each experiment and protected from light. Rotenone containing YES and EMM agar media were prepared by mixing rotenone stock solution with growth medium as required for the desired rotenone concentration (up to 6.4 μg/ml). For agar media, rotenone stock solution was added after autoclaving and cooling of the media to approximately 45° C. DMSO was added to control media at concentrations equivalent to that in media supplemented with rotenone. Plates were incubated at room temperature for 3-12 hr prior to use. S. pombe strains were cultured overnight in YES liquid medium at 30° C. to mid-log phase, concentrated to 5×10^6 cells/ml, and serially diluted (1:5). Three μl of each dilution was spotted onto rotenone containing plates and control plates and the plates were incubated at 30° C. for 2-4 days, as indicated in relevant figure legends.
Effects of rotenone on S. pombe cell growth in nutrient-enriched and nutrient-limited conditions. To investigate the effects of rotenone on S. pombe cell growth, we prepared complex rich (YES) and synthetic defined minimal (EMM) agar media containing concentrations of rotenone ranging from 0.2 to 6.4 μg/ml. […] Since rotenone has a relatively short half-life in aqueous solutions, growth media containing the toxin were prepared freshly prior to each experiment. Mid-log phase cultures of wild type S. pombe cells were serially diluted and tested for growth on YES and EMM plates containing rotenone and on control media lacking the toxin.
To determine whether spc1Δ and/or pmk1Δ mutants are hypersensitive to rotenone, log phase cultures of the two strains and wild type S. pombe cells were serially diluted and tested for growth on YES medium containing rotenone and on control medium lacking the toxin. […] The reduced sensitivity of spc1Δ cells to rotenone was most evident after incubation of the cultures for two days (FIG. 8A), with the difference after 3 days of growth being apparent from examination of colony sizes at the end of the cell dilution series on the respective plates (FIG. 8B).

[5] = test system: S. pombe cells; assay: DIC microscopy of cell morphology; type: cell-based, Schizosaccharomyces pombe; settings: wild type, rotenone 6.4 μg/ml, 4 to 24 hrs
Description: To determine whether rotenone induces abnormalities in S. pombe cell morphology, rotenone-treated and untreated S. pombe cells were compared by DIC microscopy.

[6] = test system: S. pombe cells; settings: 0.3 μg/ml rotenone, Heslot et al. 1970; cited from earlier work

## O=C1O[C@H]([C@@H](O)CO)C(O)=C1O [ascorbic acid]
[1]; pka1Δ S. pombe cells
  reversal of rotenone-induced proliferation inhibition: reversed
[1]; wild-type S. pombe cells, nutrient stressed conditions
  reversal of rotenone-induced proliferation inhibition: reversed

## NCCO [ethanolamine]
[1]; psd1-3Δ (phosphatidylethanolamine deficient) strain, YES with 16 μM rotenone, 1 mM ethanolamine
  suppression of rotenone-sensitive phenotype: suppressed

## C=C(C)[C@H]1Cc2c(ccc3c2O[C@@H]2COc4cc(OC)c(OC)cc4[C@@H]2C3=O)O1 [rotenone]
[2]; pmk1Δ cells, rotenone 6.4 μg/ml, 4 hr
  cells with fragmentation of mitochondrial localization: approximately 70 % of cells
[2]; spc1Δ cells, rotenone 6.4 μg/ml, 4 hr
  effect on mitochondrial localization: marginal effect
[2]; wild type, continued culturing in rotenone containing medium, data not shown
  persistence of fragmented pattern of mitochondrial localization after initial exposure: at least 24 hrs
[3]; pmk1Δ cells, 12 hrs
  rotenone-induced ROS levels (DHE) relative to wild type: dramatically higher
[3]; spc1Δ cells, 12 hrs
  rotenone-induced ROS levels (DHE): only a very slight increase
[3]; 6 hrs
  ROS levels (DHE): higher levels of ROS than control cells
[3]; 12 hr
  ROS levels (DHE): Higher levels of ROS
[4]; aks1Δ mutant, complex YES medium
  sensitivity of growth to rotenone: strongly hypersensitive
[4]; cgs1Δ mutant, complex YES medium
  sensitivity of growth to rotenone: does not significantly increase the sensitivity
[4]; cgs1Δaks1Δ double mutant, complex YES medium
  sensitivity of growth to rotenone: allowing the yeast to proliferate in the presence of rotenone
[4]; pka1Δ mutant, complex YES medium
  sensitivity of growth to rotenone: strongly hypersensitive
[4]; pmk1Δ mutant, YES medium, 3 days
  sensitivity of growth to rotenone relative to wild type: profoundly more sensitive
[4]; psd1Δ psd2Δ psd3Δ triple deletion, complex medium
  sensitivity of growth to rotenone: increased sensitivity
[4]; spc1Δ mutant, YES medium, 2-3 days
  sensitivity of growth to rotenone relative to wild type: slightly less sensitive
[4]; spc1Δ mutant, complex YES medium
  sensitivity of growth to rotenone: not hypersensitive
[4]; EMM minimal medium, 1.6 μg/ml rotenone, 4 days at 30° C.
  inhibition of S. pombe growth: slightly inhibited
[4]; EMM minimal medium, 6.4 μg/ml rotenone, 4 days at 30° C.
  inhibition of S. pombe growth: strongly inhibited
[4]; YES medium, 6.4 μg/ml rotenone, 3 days at 30° C.
  inhibition of S. pombe growth: modest inhibition
[4]; YES medium, rotenone concentrations lower than 6.4 μg/ml (from 0.2 μg/ml)
  inhibition of S. pombe growth: not on YES containing lower concentrations
[5]
  defects in S. pombe cell morphology: does not induce obvious defects
[6]
  effect on S. pombe cell growth: negligible effect
